{"source": "patent US10202406B2", "about": "“Boron cluster compounds and uses thereof” (priority 2011, dated 2019)", "note": "“Also recorded” adds a separate entry of the source."}
{"target": "T1, Nav1.2 voltage gated sodium channels (Homo sapiens, UniProt Q99250)", "T1 construct": "expressed in transfected cells; host or cells: Xenopus oocytes", "T1 sequence (Q99250 whole entry)": "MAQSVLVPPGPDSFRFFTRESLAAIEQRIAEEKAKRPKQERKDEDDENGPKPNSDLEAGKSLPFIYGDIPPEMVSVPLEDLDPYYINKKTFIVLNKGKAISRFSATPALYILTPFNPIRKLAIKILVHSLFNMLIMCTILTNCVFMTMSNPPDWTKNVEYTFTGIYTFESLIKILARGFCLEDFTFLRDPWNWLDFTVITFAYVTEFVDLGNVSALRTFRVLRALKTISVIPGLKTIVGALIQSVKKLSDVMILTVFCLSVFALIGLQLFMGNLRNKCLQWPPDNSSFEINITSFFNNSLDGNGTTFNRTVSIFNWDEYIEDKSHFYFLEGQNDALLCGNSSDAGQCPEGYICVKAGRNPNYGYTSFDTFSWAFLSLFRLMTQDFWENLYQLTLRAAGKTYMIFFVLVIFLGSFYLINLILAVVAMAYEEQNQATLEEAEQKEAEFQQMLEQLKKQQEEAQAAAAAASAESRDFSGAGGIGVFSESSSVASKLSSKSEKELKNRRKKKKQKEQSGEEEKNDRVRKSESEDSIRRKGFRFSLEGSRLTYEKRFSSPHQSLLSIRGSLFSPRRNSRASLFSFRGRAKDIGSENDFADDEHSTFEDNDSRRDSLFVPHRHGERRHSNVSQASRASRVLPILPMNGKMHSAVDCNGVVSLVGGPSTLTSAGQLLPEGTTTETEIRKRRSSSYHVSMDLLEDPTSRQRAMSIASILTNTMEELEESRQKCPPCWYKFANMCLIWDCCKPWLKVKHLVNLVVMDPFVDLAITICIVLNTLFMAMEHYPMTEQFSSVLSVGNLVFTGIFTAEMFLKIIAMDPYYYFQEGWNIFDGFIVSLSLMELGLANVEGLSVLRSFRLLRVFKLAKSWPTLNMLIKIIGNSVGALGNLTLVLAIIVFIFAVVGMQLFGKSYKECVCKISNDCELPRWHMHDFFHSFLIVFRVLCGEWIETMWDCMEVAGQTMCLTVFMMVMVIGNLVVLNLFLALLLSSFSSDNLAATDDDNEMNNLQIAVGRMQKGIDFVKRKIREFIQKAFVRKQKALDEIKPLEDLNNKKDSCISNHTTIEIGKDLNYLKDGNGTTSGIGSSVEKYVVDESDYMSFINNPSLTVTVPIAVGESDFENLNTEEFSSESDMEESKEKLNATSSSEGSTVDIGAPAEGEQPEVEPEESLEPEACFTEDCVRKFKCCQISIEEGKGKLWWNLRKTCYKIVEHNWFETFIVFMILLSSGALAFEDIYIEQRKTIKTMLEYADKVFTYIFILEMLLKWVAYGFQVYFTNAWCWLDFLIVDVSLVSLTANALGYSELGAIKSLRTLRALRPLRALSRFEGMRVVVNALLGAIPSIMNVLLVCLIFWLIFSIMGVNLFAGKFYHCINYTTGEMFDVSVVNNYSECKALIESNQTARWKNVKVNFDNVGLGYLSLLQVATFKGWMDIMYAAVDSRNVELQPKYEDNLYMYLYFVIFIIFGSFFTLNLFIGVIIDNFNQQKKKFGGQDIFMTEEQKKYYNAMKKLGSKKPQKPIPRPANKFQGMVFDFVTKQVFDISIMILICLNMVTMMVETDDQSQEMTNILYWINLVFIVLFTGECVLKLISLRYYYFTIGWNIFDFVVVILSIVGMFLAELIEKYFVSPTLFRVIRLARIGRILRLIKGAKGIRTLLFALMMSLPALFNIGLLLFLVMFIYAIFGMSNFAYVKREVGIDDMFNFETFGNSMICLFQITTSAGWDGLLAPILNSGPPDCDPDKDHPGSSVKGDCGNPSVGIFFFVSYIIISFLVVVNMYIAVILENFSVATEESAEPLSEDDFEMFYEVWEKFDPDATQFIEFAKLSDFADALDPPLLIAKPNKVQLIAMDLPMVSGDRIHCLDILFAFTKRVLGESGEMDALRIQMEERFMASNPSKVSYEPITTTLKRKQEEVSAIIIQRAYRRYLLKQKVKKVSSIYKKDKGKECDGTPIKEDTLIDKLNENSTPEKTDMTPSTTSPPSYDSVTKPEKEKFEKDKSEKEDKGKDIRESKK", "test": "Two electrode voltage clamp electrophysiology of voltage gated sodium channels expressed in Xenopus oocytes", "format": "cell-based", "details": "0.3 mM in superfusate for two minutes then washed out; holding potential -50 mV; Nav1.2 in Xenopus oocytes", "procedure": "Nav1.2 voltage gated sodium channels were expressed in Xenopus oocytes and standard two electrode voltage clamp techniques were used to measure ionic currents through the channels after depolarizations from a holding potential of −50 mV. The test drugs, all at a concentration of 0.3 mM, were added to the superfusate for two minutes as indicated by the black bars and then washed out. […] Data are expressed as means±standard error of the mean and n equals the number of cells used in FIG. 4 (a)-(d)."}
{"molecule": "3-Diethylaminoacetamido-1,2-closo-carborane [o-carborane lidocaine]", "block of voltage gated sodium channels (ionic currents)": "block voltage gated sodium channels in a reversible manner"}
{"molecule": "9-Diethylaminoacetamido-1,7-closo-carborane [m-carborane lidocaine]", "block of voltage gated sodium channels (ionic currents)": "block voltage gated sodium channels in a reversible manner"}
{"molecule": "CCN(CC)CC(=O)Nc1c(C)cccc1C", "note": "[lidocaine, reference compound]", "block of voltage gated sodium channels (ionic currents)": "block voltage gated sodium channels in a reversible manner"}
{"molecule": "2-Diethylaminoacetamido-1,12-closo-carborane [p-carborane lidocaine]", "block of voltage gated sodium channels (ionic currents)": "block voltage gated sodium channels in a reversible manner"}
{"system": "mice", "test": "Hot plate paw withdrawal latency after injection into a hind limb near the sciatic nerve", "format": "in vivo", "details": "50 microliters of 10 mM injected into hind limb near sciatic nerve, 55° C. hot plate, about 30 min", "procedure": "The test drugs, all at a volume of 50 microliters and a concentration of 10 mM, were injected into a hind limb near the sciatic nerve. The time it takes for the animals to withdraw the foot of the injected limb from touching a 55° C. hot plate is measured in seconds. This time is termed the paw withdrawal latency and is measured over about a 30 min time period. Data are expressed as means±standard error of the mean and n equals the number of animals used in FIG. 5(a)-(d)."}
{"molecule": "3-Diethylaminoacetamido-1,2-closo-carborane [o-carborane lidocaine]", "analgesia / sensory block (paw withdrawal latency)": "provide analgesia"}
{"molecule": "9-Diethylaminoacetamido-1,7-closo-carborane [m-carborane lidocaine]", "analgesia / sensory block (paw withdrawal latency)": "did not provide analgesia; also recorded: neither motor nor sensory block"}
{"molecule": "CCN(CC)CC(=O)Nc1c(C)cccc1C", "note": "[lidocaine, reference compound]", "analgesia / sensory block (paw withdrawal latency)": "provide analgesia"}
{"molecule": "2-Diethylaminoacetamido-1,12-closo-carborane [p-carborane lidocaine]", "analgesia / sensory block (paw withdrawal latency)": "provide analgesia"}
{"system": "mice", "test": "Motor deficit testing, inverted screen test after injection", "details": "sensory block (hot plate) versus motor block (inverted screen test)", "protocol": "Motor function was tested by observing the ability of the mice to walk hanging upside down from a screen, termed the inverted screen test."}
{"molecule": "3-Diethylaminoacetamido-1,2-closo-carborane [o-carborane lidocaine]", "selectivity of block of sensory nerves over motor nerves": "selectively blocked sensory nerves over motor nerves; also recorded: selective block of sensory nerves over motor nerves"}
{"molecule": "2-Diethylaminoacetamido-1,12-closo-carborane [p-carborane lidocaine]", "selectivity of block of sensory nerves over motor nerves": "selectively blocked sensory nerves over motor nerves; also recorded: selective block of sensory nerves over motor nerves"}
